Results from ChEMBL document CHEMBL1148149, “Bufadienolide and spirostanol glycosides from the rhizomes of helleborusorientalis” (J Nat Prod, 2003).
≈ marks a conversion by molar mass, not a printed value.

How the values were obtained:
Type in all cases: functional, cell-based
[1] = test system: HSC-2; assay: Cytotoxicity against human HSC2 cells after 24 hrs by MTT assay; conditions: HSC-2, 24 h
[2] = test system: A-375; assay: Cytotoxicity against human A375 cells after 24 hrs by MTT assay; conditions: A-375, 24 h
[3] = test system: HepG2; assay: Cytotoxicity against human HepG2 cells after 24 hrs by MTT assay; conditions: HepG2, 24 h
[4] = Cytotoxicity against human HPC cells after 24 hrs by MTT assay

Structure (SMILES): C[C@@H]1O[C@@H](O[C@H]2CC[C@]3(C=O)[C@H]4CC[C@]5(C)[C@@H](c6ccc(=O)oc6)[C@@H](O)C[C@]5(O)[C@@H]4CC[C@]3(O)C2)[C@H](O)[C@H](O)[C@H]1O
- IC50 [1]: 0.0085 µg/mL (≈ 0.0147 µM)
- IC50 [2]: 0.055 µg/mL (≈ 0.095 µM)
- IC50 [3]: 0.74 µg/mL (≈ 1.28 µM)
- IC50 [4]: 9.5 µg/mL (≈ 16.4 µM)

Structure (SMILES): C[C@@H]1O[C@@H](O[C@H]2CC[C@]3(C=O)[C@H]4CC[C@]5(C)[C@@H](c6ccc(=O)oc6)CC[C@]5(O)[C@@H]4CC[C@]3(O)C2)[C@H](O)[C@H](O)[C@H]1O
- IC50 [1]: 0.0028 µg/mL (≈ 0.00498 µM)
- IC50 [2]: 0.0063 µg/mL (≈ 0.0112 µM)
- IC50 [3]: 0.25 µg/mL (≈ 0.444 µM)
- IC50 [4]: 6.7 µg/mL (≈ 11.9 µM)

Structure (SMILES): C[C@]12CC[C@H]3[C@@H](CC[C@]4(O)C[C@@H](O[C@@H]5O[C@H](CO)[C@@H](O)[C@H](O)[C@H]5O)CC[C@]34C=O)[C@@]1(O)CC[C@@H]2c1ccc(=O)oc1
- IC50 [1]: 0.0029 µg/mL (≈ 0.00501 µM)
- IC50 [2]: 0.0086 µg/mL (≈ 0.0149 µM)
- IC50 [3]: 0.23 µg/mL (≈ 0.397 µM)
- IC50 [4]: 0.082 µg/mL (≈ 0.142 µM)

Structure (SMILES): C=C1CO[C@@]2(O[C@H]3C[C@H]4[C@@H]5CC=C6C[C@@H](O)C[C@@H](O[C@@H]7OC[C@H](O)[C@H](O[C@@H]8OC[C@@H](O)[C@H](O)[C@H]8O)[C@H]7O[C@@H]7O[C@@H](C)[C@H](OC(C)=O)[C@@H](O[C@@H]8OC[C@](O)(CO)[C@H]8O)[C@H]7O)[C@]6(C)[C@H]5CC[C@]4(C)[C@H]3[C@@H]2C)[C@@H](O)[C@H]1O
- IC50 [1]: 86 µg/mL (≈ 82.3 µM)

Structure (SMILES): C=C1CO[C@@]2(O[C@H]3C[C@H]4[C@@H]5CC=C6C[C@@H](O)C[C@@H](O[C@@H]7OC[C@H](O)[C@H](O[C@@H]8OC[C@@H](O)[C@H](O)[C@H]8O)[C@H]7O[C@@H]7O[C@@H](C)[C@H](OC(C)=O)[C@@H](O[C@@H]8OC[C@](O)(CO)[C@H]8O)[C@H]7O)[C@]6(C)[C@H]5CC[C@]4(C)[C@H]3[C@@H]2C)[C@@H](O)C1
- IC50 [1]: 27 µg/mL (≈ 26.2 µM)

Structure (SMILES): C=C1CO[C@@]2(O[C@H]3C[C@H]4[C@@H]5CC=C6C[C@@H](O)C[C@@H](O[C@@H]7OC[C@H](O)[C@H](O[C@@H]8OC[C@@H](O)[C@H](O)[C@H]8O)[C@H]7O[C@@H]7O[C@@H](C)[C@H](OC(C)=O)[C@@H](O[C@@H]8OC[C@](O)(CO)[C@H]8O)[C@H]7O)[C@]6(C)[C@H]5CC[C@]4(C)[C@H]3[C@@H]2COC(C)=O)[C@@H](O)[C@H]1O[C@@H]1O[C@H](C)[C@@H](O)[C@H](O)[C@H]1O
- IC50 [1]: > 200 µg/mL

Structure (SMILES): C=C1CO[C@@]2(O[C@H]3C[C@H]4[C@@H]5CC=C6C[C@@H](O)C[C@@H](O[C@@H]7OC[C@H](O)[C@H](O[C@@H]8OC[C@@H](O)[C@H](O)[C@H]8O)[C@H]7O[C@@H]7O[C@@H](C)[C@H](OC(C)=O)[C@@H](O[C@@H]8OC[C@](O)(CO)[C@H]8O)[C@H]7O)[C@]6(C)[C@H]5CC[C@]4(C)[C@H]3[C@@H]2COC(C)=O)[C@@H](O)[C@H]1O[C@@H]1O[C@H](CO)[C@@H](O)[C@H](O)[C@H]1O
- IC50 [1]: > 200 µg/mL

Structure (SMILES): C=C1CO[C@@]2(O[C@H]3C[C@H]4[C@@H]5CC=C6C[C@@H](O)C[C@@H](O[C@@H]7OC[C@H](O)[C@H](O[C@@H]8OC[C@@H](O)[C@H](O)[C@H]8O)[C@H]7O[C@@H]7O[C@@H](C)[C@H](OC(C)=O)[C@@H](O[C@@H]8OC[C@](O)(CO)[C@H]8O)[C@H]7O)[C@]6(C)[C@H]5CC[C@]4(C)[C@H]3[C@@H]2COC(C)=O)[C@@H](O)[C@H]1O
- IC50 [1]: 184 µg/mL (≈ 167 µM)

Structure (SMILES): COc1cccc2c1C(=O)c1c(O)c3c(c(O)c1C2=O)C[C@@](O)(C(=O)CO)C[C@@H]3O[C@H]1C[C@H](N)[C@H](O)[C@H](C)O1 [DOXORUBICIN]
- IC50 [1]: 2.5 µg/mL (≈ 4.6 µM)
- IC50 [2]: 1.8 µg/mL (≈ 3.31 µM)
- IC50 [3]: > 40 µg/mL
- IC50 [4]: > 40 µg/mL
